Reference: patent US12281080B2, “Quinoline-based compounds and methods of inhibiting CDK8/19” (University of South Carolina, priority 2018, dated 2025)

Legend:
Experiment in all cases: KINOMEscan scanMAX
Assay type in all cases: binding
Conditions in all cases: 2000 nM; read-out: Percent Control
FLT1 = FLT1 (Homo sapiens (Human), UniProt P17948)
CHEK1 = CHEK1 (Homo sapiens (Human), UniProt O14757)
[1] = target: ABL1(T315I)-nonphosphorylated (Homo sapiens (Human), UniProt P00519, T315I)
FLT3(D835Y) = FLT3(D835Y) (Homo sapiens (Human), UniProt P36888, D835Y)
[2] = target: ABL1(F317I)-phosphorylated (Homo sapiens (Human), UniProt P00519, F317I)
RET(M918T) = RET(M918T) (Homo sapiens (Human), UniProt P07949, M918T)
CDK4-cyclinD3 = CDK4-cyclinD3 (Homo sapiens (Human), UniProt P11802)
Chain of CDK4-cyclinD3 (P11802 whole entry): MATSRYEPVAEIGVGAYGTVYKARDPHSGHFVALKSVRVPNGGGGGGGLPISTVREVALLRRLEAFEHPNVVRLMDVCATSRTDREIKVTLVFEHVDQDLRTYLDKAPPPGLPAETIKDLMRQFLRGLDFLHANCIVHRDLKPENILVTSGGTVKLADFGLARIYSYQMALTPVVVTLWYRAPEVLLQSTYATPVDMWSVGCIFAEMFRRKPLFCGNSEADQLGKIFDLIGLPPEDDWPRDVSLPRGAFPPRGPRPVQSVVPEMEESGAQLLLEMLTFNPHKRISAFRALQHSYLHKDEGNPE
Chain of CDK4-cyclinD3 (P30281 whole entry partner): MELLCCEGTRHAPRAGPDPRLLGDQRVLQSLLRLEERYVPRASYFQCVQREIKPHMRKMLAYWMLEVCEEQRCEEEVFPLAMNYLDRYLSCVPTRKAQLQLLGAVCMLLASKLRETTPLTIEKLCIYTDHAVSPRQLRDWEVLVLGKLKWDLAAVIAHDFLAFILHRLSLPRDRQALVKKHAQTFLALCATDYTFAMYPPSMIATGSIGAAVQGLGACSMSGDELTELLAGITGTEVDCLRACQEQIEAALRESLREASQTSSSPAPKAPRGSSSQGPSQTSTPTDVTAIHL

MAPKAPK5 = MAPKAPK5 (Homo sapiens (Human), UniProt Q8IW41)
Chain of MAPKAPK5 (Q8IW41 whole entry): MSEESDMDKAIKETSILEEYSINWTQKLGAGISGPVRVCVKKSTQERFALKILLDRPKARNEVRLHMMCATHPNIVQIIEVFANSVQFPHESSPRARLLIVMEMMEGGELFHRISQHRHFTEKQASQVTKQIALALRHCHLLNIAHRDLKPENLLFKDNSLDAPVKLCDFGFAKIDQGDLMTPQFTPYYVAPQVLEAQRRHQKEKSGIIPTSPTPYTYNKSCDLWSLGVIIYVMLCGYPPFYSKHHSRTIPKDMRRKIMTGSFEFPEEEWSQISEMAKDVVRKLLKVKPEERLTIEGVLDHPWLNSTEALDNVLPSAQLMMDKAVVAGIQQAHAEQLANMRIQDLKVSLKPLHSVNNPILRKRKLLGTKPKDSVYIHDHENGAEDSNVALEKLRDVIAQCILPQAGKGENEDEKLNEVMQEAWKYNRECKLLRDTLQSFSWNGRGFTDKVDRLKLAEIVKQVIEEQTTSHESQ

ABL2 = ABL2 (Homo sapiens (Human), UniProt P42684)
ACVR1B = ACVR1B (Homo sapiens (Human), UniProt P36896)
Chain of ACVR1B (P36896 24-505): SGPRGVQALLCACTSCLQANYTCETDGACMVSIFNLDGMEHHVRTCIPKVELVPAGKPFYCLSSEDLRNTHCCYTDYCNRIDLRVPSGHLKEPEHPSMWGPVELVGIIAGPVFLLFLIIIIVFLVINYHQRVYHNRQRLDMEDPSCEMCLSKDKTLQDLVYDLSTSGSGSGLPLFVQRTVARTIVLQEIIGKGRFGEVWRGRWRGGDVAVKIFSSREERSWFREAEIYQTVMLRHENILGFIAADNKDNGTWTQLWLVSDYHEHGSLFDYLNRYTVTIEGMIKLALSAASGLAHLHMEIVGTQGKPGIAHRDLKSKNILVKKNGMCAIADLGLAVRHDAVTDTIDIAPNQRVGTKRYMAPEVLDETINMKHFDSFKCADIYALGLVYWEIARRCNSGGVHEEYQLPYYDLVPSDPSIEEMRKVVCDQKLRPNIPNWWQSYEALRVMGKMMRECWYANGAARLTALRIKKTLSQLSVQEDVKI

GSK3A = GSK3A (Homo sapiens (Human), UniProt P49840)
PHKG1 = PHKG1 (Homo sapiens (Human), UniProt Q16816)
[3] = target: ABL1(Y253F)-phosphorylated (Homo sapiens (Human), UniProt P00519, Y253F)
CDK4 = CDK4 (Homo sapiens (Human), UniProt P11802)
Chain of CDK4 (P11802 whole entry): as the sequence (P11802 whole entry) above

WEE2 = WEE2 (Homo sapiens (Human), UniProt P0C1S8)
Chain of WEE2 (P0C1S8 whole entry): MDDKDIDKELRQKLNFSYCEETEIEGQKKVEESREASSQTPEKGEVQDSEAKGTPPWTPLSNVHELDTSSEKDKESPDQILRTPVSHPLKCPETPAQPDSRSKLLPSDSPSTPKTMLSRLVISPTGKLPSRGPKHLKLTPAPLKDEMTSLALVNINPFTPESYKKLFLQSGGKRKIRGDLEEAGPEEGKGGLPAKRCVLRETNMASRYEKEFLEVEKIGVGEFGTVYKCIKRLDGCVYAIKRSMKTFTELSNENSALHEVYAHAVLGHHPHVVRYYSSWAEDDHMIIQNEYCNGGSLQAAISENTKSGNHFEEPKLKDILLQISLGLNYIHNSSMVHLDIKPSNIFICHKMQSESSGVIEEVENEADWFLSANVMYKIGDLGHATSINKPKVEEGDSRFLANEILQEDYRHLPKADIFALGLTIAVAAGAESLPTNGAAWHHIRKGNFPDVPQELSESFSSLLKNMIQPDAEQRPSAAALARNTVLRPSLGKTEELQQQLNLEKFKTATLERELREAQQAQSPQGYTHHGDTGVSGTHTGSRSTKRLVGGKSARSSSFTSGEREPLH

FGFR3 = FGFR3 (Homo sapiens (Human), UniProt P22607)
IRAK1 = IRAK1 (Homo sapiens (Human), UniProt P51617)
STK35 = STK35 (Homo sapiens (Human), UniProt Q8TDR2)
CSNK1G1 = CSNK1G1 (Homo sapiens (Human), UniProt Q9HCP0)
Chain of CSNK1G1 (Q9HCP0 whole entry): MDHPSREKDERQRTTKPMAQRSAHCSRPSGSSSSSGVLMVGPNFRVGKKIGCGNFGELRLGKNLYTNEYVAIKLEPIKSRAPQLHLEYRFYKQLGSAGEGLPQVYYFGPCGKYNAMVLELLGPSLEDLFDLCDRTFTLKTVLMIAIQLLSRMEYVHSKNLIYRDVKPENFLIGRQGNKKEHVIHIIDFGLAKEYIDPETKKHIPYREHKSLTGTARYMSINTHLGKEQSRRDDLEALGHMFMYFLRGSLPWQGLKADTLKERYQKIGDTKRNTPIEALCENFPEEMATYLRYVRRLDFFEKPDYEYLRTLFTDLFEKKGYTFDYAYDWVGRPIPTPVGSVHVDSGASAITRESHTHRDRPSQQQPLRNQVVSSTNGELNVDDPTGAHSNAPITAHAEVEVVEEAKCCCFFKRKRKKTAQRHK

CSNK2A1 = CSNK2A1 (Homo sapiens (Human), UniProt P68400)
MARK4 = MARK4 (Homo sapiens (Human), UniProt Q96L34)
[4] = target: ABL1(F317I)-nonphosphorylated (Homo sapiens (Human), UniProt P00519, F317I)
MLK2 (MAP3K10) = MLK2 (MAP3K10) (Homo sapiens (Human), UniProt Q02779)
TSSK1B = TSSK1B (Homo sapiens (Human), UniProt Q9BXA7)
[5] = target: RSK3(Kin.Dom.1-N-terminal) (RPS6KA2) (Homo sapiens (Human), UniProt Q15349)
EGFR(G719S) = EGFR(G719S) (Homo sapiens (Human), UniProt P00533, G719S)
NEK10 = NEK10 (Homo sapiens (Human), UniProt Q6ZWH5)
IGF1R = IGF1R (Homo sapiens (Human), UniProt P08069)
Chain of IGF1R (P08069 31-1367): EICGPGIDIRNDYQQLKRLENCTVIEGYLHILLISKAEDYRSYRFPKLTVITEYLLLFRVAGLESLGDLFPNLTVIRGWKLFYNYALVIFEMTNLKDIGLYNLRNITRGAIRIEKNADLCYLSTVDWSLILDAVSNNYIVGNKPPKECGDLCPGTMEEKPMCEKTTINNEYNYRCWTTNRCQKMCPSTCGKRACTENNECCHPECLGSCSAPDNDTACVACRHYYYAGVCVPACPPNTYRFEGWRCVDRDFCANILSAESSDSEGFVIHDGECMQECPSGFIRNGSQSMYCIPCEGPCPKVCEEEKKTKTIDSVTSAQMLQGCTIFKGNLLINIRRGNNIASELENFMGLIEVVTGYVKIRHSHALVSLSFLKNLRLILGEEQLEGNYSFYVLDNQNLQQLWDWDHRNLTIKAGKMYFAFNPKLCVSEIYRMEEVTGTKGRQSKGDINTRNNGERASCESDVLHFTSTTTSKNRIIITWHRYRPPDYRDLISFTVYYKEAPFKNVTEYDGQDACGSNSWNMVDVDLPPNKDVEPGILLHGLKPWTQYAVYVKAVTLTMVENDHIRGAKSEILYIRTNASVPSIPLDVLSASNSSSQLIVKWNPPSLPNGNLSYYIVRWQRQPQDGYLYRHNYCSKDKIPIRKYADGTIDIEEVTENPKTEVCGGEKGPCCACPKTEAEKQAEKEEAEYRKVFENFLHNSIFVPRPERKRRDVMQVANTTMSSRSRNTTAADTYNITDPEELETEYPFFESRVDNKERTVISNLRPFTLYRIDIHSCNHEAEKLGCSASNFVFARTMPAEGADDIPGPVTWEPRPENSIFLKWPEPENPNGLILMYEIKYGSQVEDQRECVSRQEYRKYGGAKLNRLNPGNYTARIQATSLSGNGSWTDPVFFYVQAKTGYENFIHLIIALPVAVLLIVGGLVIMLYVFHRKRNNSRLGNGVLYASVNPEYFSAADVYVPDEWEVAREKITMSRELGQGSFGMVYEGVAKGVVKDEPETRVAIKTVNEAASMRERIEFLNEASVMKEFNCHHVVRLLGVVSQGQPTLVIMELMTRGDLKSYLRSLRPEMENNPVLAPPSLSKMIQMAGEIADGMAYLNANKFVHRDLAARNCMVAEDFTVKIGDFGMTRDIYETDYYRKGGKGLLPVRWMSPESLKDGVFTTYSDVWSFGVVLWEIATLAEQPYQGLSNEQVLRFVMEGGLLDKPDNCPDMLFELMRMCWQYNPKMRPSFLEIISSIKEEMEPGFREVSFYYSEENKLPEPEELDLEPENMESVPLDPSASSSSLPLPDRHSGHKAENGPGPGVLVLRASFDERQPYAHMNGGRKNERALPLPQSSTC

CSF1R = CSF1R (Homo sapiens (Human), UniProt P07333)
EPHA6 = EPHA6 (Homo sapiens (Human), UniProt Q9UF33)
FES = FES (Homo sapiens (Human), UniProt P07332)
CAMK2G = CAMK2G (Homo sapiens (Human), UniProt Q13555)
STK39 = STK39 (Homo sapiens (Human), UniProt Q9UEW8)
FYN = FYN (Homo sapiens (Human), UniProt P06241)
Chain of FYN (P06241 whole entry): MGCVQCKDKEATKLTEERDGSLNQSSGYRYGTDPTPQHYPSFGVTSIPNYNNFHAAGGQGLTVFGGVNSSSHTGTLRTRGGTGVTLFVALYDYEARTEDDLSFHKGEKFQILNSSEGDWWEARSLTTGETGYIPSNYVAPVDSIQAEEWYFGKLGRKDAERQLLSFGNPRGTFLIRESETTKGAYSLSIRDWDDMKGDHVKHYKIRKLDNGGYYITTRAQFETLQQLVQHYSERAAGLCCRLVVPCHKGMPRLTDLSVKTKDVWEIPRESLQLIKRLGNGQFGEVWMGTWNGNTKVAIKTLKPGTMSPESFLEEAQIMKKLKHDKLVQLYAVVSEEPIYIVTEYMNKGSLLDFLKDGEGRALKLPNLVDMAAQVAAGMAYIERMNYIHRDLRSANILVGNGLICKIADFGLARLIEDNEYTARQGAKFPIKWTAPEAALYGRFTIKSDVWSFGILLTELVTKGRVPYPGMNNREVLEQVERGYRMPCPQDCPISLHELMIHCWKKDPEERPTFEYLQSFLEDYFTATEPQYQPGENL

[6] = target: PKNB(M.tuberculosis) (pknB) (Mycobacterium tuberculosis (strain ATCC 25618 / H37Rv), UniProt P9WI81)
PRKCI = PRKCI (Homo sapiens (Human), UniProt P41743)
RIOK1 = RIOK1 (Homo sapiens (Human), UniProt Q9BRS2)
EGFR(L858R) = EGFR(L858R) (Homo sapiens (Human), UniProt P00533, L858R)
LRRK2(G2019S) = LRRK2(G2019S) (Homo sapiens (Human), UniProt Q5S007, G2019S)

Chain of CHEK1 (O14757 whole entry): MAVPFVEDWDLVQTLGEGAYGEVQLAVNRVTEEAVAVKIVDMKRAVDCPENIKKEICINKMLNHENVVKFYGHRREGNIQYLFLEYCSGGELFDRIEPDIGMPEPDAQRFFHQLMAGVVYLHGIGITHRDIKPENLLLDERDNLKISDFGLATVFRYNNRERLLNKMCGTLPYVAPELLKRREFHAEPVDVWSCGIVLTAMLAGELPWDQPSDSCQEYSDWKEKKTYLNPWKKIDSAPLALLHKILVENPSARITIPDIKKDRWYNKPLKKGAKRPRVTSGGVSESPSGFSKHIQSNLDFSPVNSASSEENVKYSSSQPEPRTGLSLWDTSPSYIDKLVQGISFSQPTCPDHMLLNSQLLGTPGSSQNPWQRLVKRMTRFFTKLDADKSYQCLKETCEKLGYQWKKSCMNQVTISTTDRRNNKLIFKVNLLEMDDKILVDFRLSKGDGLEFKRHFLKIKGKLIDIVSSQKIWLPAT

## CN1CCN(C(=O)c2ccc3cc(CCNc4ccnc5ccc(C#N)cc45)ccc3c2)CC1 [compound 6148, 4-((2-(6-(4-methylpiperazine-1-carbonyl)naphthalen-2-yl)ethyl)amino)quinoline-6-carbonitrile]
FLT1
  remaining binding at 2 µM: 99%
CHEK1
  remaining binding at 2 µM: 100%
[1]
  remaining binding at 2 µM: 90%
FLT3(D835Y)
  remaining binding at 2 µM: 73%
[2]
  remaining binding at 2 µM: 89%
RET(M918T)
  remaining binding at 2 µM: 85%
CDK4-cyclinD3
  remaining binding at 2 µM: 80%
MAPKAPK5
  remaining binding at 2 µM: 62%
ABL2
  remaining binding at 2 µM: 93%
ACVR1B
  remaining binding at 2 µM: 92%
GSK3A
  remaining binding at 2 µM: 94%
PHKG1
  remaining binding at 2 µM: 95%
[3]
  remaining binding at 2 µM: 74%
CDK4
  remaining binding at 2 µM: 67%
WEE2
  remaining binding at 2 µM: 95%
FGFR3
  remaining binding at 2 µM: 100%
IRAK1
  remaining binding at 2 µM: 45%
STK35
  remaining binding at 2 µM: 100%
CSNK1G1
  remaining binding at 2 µM: 100%
CSNK2A1
  remaining binding at 2 µM: 56%
MARK4
  remaining binding at 2 µM: 78%
[4]
  remaining binding at 2 µM: 88%
MLK2 (MAP3K10)
  remaining binding at 2 µM: 79%
TSSK1B
  remaining binding at 2 µM: 100%
[5]
  remaining binding at 2 µM: 100%
EGFR(G719S)
  remaining binding at 2 µM: 100%
NEK10
  remaining binding at 2 µM: 41%
IGF1R
  remaining binding at 2 µM: 94%
CSF1R
  remaining binding at 2 µM: 85%
EPHA6
  remaining binding at 2 µM: 79%
FES
  remaining binding at 2 µM: 81%
CAMK2G
  remaining binding at 2 µM: 100%
STK39
  remaining binding at 2 µM: 44%
FYN
  remaining binding at 2 µM: 89%
[6]
  remaining binding at 2 µM: 93%
PRKCI
  remaining binding at 2 µM: 89%
RIOK1
  remaining binding at 2 µM: 94%
EGFR(L858R)
  remaining binding at 2 µM: 93%
LRRK2(G2019S)
  remaining binding at 2 µM: 56%
